Measurements: ChEMBL document CHEMBL1201862, “PubChem BioAssay data set” (2004)
The source made the active and inactive calls.

How the values were obtained:
Type in all cases: functional
[1] = target: Eukaryotic translation initiation factor 4E (Mus musculus, UniProt P63073); test: eIF4E–eIF4G protein interaction inhibitors, dose response, biochemical, TR-FRET (AID 855);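 further: potency for disrupting eIF4E binding to eIF4GI seen as loss of FRET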
[2] = target: T1, Tyrosine-protein phosphatase non-receptor type 22 (Homo sapiens, UniProt Q9Y2R2)
T1 sequence (Q9Y2R2 whole entry): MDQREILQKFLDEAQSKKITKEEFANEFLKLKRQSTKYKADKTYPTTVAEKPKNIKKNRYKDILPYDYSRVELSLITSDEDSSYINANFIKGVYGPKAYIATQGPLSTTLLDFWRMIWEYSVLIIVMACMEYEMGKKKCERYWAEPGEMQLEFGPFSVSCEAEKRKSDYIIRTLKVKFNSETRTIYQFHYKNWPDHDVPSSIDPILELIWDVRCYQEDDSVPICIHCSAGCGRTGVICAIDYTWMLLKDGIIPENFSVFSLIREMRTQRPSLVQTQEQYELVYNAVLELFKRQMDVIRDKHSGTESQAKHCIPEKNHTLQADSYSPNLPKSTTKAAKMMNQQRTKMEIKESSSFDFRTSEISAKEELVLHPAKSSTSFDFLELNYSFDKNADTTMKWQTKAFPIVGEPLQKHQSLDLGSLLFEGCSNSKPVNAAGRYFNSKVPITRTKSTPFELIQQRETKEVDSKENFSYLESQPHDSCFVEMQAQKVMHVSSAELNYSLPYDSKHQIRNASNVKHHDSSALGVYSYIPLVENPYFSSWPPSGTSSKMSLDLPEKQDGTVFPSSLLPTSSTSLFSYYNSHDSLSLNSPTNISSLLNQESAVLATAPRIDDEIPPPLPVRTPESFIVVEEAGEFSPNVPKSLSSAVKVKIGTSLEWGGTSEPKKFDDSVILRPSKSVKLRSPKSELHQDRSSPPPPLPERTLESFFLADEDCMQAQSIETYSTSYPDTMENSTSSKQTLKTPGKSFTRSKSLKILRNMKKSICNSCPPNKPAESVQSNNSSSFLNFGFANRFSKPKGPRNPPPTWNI

[3] = target: T1, Tyrosine-protein phosphatase non-receptor type 22; remark: listed apart in the source
[4] = target: T2, Tyrosine-protein phosphatase non-receptor type 7 (Homo sapiens, UniProt P35236)
T2 sequence (P35236 whole entry): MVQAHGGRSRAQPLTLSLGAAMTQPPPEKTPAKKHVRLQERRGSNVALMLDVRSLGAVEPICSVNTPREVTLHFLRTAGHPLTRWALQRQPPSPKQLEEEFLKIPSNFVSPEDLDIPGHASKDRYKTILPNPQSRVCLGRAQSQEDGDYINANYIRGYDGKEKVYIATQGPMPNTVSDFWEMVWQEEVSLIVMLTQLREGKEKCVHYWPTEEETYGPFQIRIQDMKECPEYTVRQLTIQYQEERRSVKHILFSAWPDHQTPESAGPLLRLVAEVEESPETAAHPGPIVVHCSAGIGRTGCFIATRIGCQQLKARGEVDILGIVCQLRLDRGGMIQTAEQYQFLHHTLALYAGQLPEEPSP

[5] = target: T3, Leucine aminopeptidase (Plasmodium falciparum 3D7, UniProt Q8IL11); test: P. falciparum M17LAP inhibitors, primary screen, biochemical, fluorogenic H-Leu-NHMec substrate, 1536-well (AID 1619)
T3 sequence (Q8IL11 whole entry): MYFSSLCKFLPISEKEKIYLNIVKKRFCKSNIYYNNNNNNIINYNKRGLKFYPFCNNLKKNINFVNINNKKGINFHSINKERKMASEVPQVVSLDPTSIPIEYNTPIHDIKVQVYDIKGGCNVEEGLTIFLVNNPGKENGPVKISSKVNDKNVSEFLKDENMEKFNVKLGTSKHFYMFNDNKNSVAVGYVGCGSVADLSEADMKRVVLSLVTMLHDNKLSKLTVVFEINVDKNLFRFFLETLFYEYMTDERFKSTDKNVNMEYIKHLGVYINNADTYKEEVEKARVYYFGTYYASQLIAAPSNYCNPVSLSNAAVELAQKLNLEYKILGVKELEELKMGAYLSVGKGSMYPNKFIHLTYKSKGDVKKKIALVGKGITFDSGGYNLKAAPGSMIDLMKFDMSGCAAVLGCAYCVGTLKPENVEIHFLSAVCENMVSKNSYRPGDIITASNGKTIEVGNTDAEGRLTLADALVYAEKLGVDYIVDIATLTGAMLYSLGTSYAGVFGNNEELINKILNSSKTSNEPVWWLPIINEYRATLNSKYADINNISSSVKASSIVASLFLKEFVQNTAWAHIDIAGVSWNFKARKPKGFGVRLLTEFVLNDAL

[6] = THP-1 cell cytotoxicity, dose response, cytotoxicity control for non-replicating M. tuberculosis project (AID 489025)
[7] = HepG2 cell cytotoxicity, dose response, cytotoxicity control for non-replicating M. tuberculosis project (AID 489018); conditions: Mycobacterium tuberculosis
[8] = target: G-protein coupled receptor 55 (Homo sapiens, UniProt Q9Y2T6); test: GPR55 antagonists blocking LPI-driven arrestin recruitment, primary screen, imaging, U2OS, beta-arrestin-GFP, LPI agonist (AID 2013);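 further: antagonist potency measured as reduced agonist-driven arrestin aggregation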
[9] = target: DNA dC->dU-editing enzyme APOBEC-3A (Homo sapiens, UniProt P31941); test: Dose Response confirmation of small molecule APOBEC3A DNA Deaminase Inhibitors via a fluorescence-based single-stranded DNA deaminase assay. [Related pubchem assays (depositor defined):AID493011, AID493024]
[10] = target: DNA dC->dU-editing enzyme APOBEC-3G (Homo sapiens, UniProt Q9HC16);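 further: Dose-response counterscreen measuring inhibition of APOBEC3G DNA deaminase activity, run while confirming APOBEC3A inhibitors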
[11] = cells

Chain of G-protein coupled receptor 55 (Q9Y2T6 whole entry): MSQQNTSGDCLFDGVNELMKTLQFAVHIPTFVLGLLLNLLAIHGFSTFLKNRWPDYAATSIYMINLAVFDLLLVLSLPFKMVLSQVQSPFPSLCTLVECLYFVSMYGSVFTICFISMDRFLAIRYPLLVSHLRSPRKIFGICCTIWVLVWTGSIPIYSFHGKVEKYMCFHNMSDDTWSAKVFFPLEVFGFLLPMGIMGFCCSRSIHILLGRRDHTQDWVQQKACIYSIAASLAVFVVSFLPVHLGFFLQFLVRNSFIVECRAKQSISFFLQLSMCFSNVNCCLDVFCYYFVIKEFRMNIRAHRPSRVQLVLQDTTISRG
Chain of DNA dC->dU-editing enzyme APOBEC-3G (Q9HC16 whole entry): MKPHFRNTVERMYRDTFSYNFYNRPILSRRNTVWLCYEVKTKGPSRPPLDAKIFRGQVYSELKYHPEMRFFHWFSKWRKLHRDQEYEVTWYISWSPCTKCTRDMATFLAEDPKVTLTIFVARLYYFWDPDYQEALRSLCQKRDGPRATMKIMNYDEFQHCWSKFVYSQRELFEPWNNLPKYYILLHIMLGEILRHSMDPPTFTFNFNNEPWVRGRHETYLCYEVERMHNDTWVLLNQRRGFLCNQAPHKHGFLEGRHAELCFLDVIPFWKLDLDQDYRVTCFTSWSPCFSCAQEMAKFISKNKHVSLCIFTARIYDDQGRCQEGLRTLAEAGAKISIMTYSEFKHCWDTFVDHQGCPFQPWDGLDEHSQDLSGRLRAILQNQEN
Chain of Eukaryotic translation initiation factor 4E (P63073 whole entry): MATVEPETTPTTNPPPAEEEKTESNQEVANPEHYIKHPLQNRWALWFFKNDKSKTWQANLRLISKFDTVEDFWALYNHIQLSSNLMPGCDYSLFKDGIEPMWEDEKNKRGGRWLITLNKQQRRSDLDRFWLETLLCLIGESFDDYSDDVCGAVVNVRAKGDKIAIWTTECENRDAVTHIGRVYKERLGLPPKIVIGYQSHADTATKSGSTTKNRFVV
Chain of DNA dC->dU-editing enzyme APOBEC-3A (P31941 whole entry): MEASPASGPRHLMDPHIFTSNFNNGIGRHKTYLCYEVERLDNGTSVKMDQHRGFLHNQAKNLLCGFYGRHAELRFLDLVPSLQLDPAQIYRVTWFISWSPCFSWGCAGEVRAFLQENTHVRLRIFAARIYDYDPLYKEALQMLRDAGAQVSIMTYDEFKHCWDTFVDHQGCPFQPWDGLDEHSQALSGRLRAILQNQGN

For `COc1ccc(CC(=O)Nc2ccc(-c3nnc(-c4ccccc4)o3)cc2)cc1OC`, the IC50 [1] was > 64 µM (inactive).

With `O=C(O)C1CCCCC1C(=O)Nc1ccc(F)c(F)c1` (configuration not stated) the IC50 [2] was > 79.4 µM (inactive), the IC50 [3] was > 79.4 µM (inactive) and the IC50 [4] was > 79.4 µM (inactive). For the same compound, the IC50 [5] was 37.8 µM (active).

In the case of `O=C(NNC1=C(C(=O)C(F)(F)F)CCC1)c1ccccc1Cl`, the CC50 [6] is reported as 13.6 µM (active) and the CC50 [7] is reported as > 20 µM (active).

With `CCCCCn1c(C(Cc2ccccc2)NC(C)=O)nc2ccccc21` (configuration not stated) the IC50 [8] was 4.08 µM (active).

For `O=C(CNC(=O)c1ccc(Cl)cc1)NCC(F)(F)F`, the IC50 [2] was > 79.4 µM (inactive), the IC50 [3] was > 79.4 µM (inactive) and the IC50 [4] was > 79.4 µM (inactive).

For `CCSc1nnc(NC(=O)C2CCCCC2C(=O)O)s1` (configuration not stated), the IC50 [2] was > 79.4 µM (inactive), the IC50 [3] was > 79.4 µM (inactive) and the IC50 [4] was > 79.4 µM (inactive).

For `Cc1n(CC(O)COCc2ccccc2)c2ccccc2[n+]1C` (configuration not stated), the IC50 [9] was 2.82 µM (active) and the IC50 [10] was 5.05 µM (active).

With `O=C(CN1CCC(NC(=O)c2cccc(F)c2)CC1)Nc1ccc(Br)cc1` the IC50 [11] was 47.8 µM (active).
